According to PubChem BioAssay (NCI):
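In this assay, cells in 96-well plates receive the compound at five concentrations for 48 hours. Endpoints are linearly interpolated between the surrounding concentrations. The concentration for 50% growth inhibition is given as GI50. TGI is the concentration that stops growth completely.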

How the values were obtained:
Assay in all cases: NCI-60 cell line screen, 48 h
M14 melanoma = test system: M14 melanoma
HCT-15 colon = test system: HCT-15 colon
CAKI-1 renal = test system: CAKI-1 renal
EKVX NSCLC = test system: EKVX NSCLC
SW-620 colon = test system: SW-620 colon
HOP-62 NSCLC = test system: HOP-62 NSCLC
KM12 colon = test system: KM12 colon
OVCAR-4 ovarian = test system: OVCAR-4 ovarian
CCRF-CEM leukemia = test system: CCRF-CEM leukemia
HL-60(TB) leukemia = test system: HL-60(TB) leukemia

SMILES | TGI (M14 melanoma) [µM] | TGI (HCT-15 colon) [µM] | TGI (CAKI-1 renal) [µM] | TGI (EKVX NSCLC) [µM] | TGI (SW-620 colon) [µM] | TGI (HOP-62 NSCLC) [µM] | TGI (KM12 colon) [µM] | TGI (OVCAR-4 ovarian) [µM] | TGI (CCRF-CEM leukemia) [µM] | TGI (HL-60(TB) leukemia) [µM] | GI50 (M14 melanoma) [µM] | GI50 (HCT-15 colon) [µM] | GI50 (CAKI-1 renal) [µM] | GI50 (EKVX NSCLC) [µM] | GI50 (SW-620 colon) [µM] | GI50 (HOP-62 NSCLC) [µM] | GI50 (KM12 colon) [µM] | GI50 (OVCAR-4 ovarian) [µM] | GI50 (CCRF-CEM leukemia) [µM] | GI50 (HL-60(TB) leukemia) [µM]
Cc1cc(C)n(-c2c(O)ccc(O)c2-n2nc(C)cc2C)n1 | > 100 | > 100 | > 100 | > 100 | > 100 | > 100 | > 100 | > 100 | > 100 | > 100 |  |  |  |  |  |  |  |  |  | 
Cc1ccc(S(=O)(=O)n2cc(C(=O)C(=O)Nc3ccncc3)c3ccccc32)cc1 | > 100 | > 100 | > 100 | > 100 | > 100 | > 100 | > 84.6 | > 100 | > 100 | 3.66 | 0.907 | 0.555 | 1.82 | 3.23 | 1.23 | 4.43 | 0.595 | 4.22 | 4.53 | 0.635
Clc1ccc2nc(CCSCCc3nc4ccc(Cl)cc4[nH]3)[nH]c2c1 | 26.5 | 26.5 | 20.2 | 31.3 | 27 | 34.1 | 29.7 | 28.5 | 41.6 | 8.09 |  |  |  |  |  |  |  |  |  | 
